System: human monocyte stimulated cytokine production (TNF-α)
Assay: Monocyte Assay (LPS-stimulated TNF-α production)
Type: cell-based
Conditions: human CD14+ monocytes, 200 ng/mL LPS, 24 hrs, TNF-α by ELISA
Procedure: Effect of IKK-β inhibition on human monocyte stimulated cytokine production was assessed as follows: Monocytes were isolated from heparinized whole blood by Ficoll gradient, followed by purification of CD14+ cells using MACS magnetic cell separation beads. Isolated monocytes were then adhered to 96-well culture plates at 1×10^6 cells/mL in RPMI 1640 10% FBS (JRH Biosciences, Lenexa Kans.) for 2 h. to further enrich the monocyte population. The media was then removed, cells washed once with RPMI 1640, and 0.125 mL RPMI 1640 10% FBS was added to the wells. Test compounds are added to the wells 30 minutes prior to stimulation with a final vehicle concentration of 0.1% DMSO. Monocytes were activated by the addition of 200 ng/mL endotoxin (LPS; E. coli serotype 026:B6) (Sigma, St. Louis, Mo.) and incubated for 24 hrs at 37 C. Cell-free supernates were analyzed by ELISA for TNF-α using Pharmingen matched pair Abs. Viability of the cells was determined by10% trypan blue exclusion.

SMILES | IC50
CCNCc1ccc(-c2cc(C(N)=O)c3[nH]cc(C4CCN(S(=O)(=O)CCCN5CCOCC5)CC4)c3c2)s1 [Example 66, 5-{5-[(ethylamino)methyl]-2-thienyl}-3-(1-{[3-(4-morpholinyl)propyl]sulfonyl}-4-piperidinyl)-1H-indole-7-carboxamide] | < 10 µM
CC(C)N(CCCS(=O)(=O)N1CCC(c2c[nH]c3c(C(N)=O)cc(-c4ccccc4)cc23)CC1)C(C)C [Example 67, 3-[1-({3-[bis(1-methylethyl)amino]propyl}sulfonyl)-4-piperidinyl]-5-phenyl-1H-indole-7-carboxamide] | < 10 µM
COCCS(=O)(=O)N1CCC(c2c[nH]c3c(C(N)=O)cc(-c4ccccc4)cc23)CC1 [Example 68, 3-(1-{[2-(methyloxy)ethyl]sulfonyl}-4-piperidinyl)-5-phenyl-1 indole-7-carboxamide] | < 10 µM
C[C@@H]1CC[C@@H](C)N1CCCS(=O)(=O)N1CCC(c2c[nH]c3c(C(N)=O)cc(-c4ccccc4)cc23)CC1 [Example 69, 3-[1-({3-[(2R,5R)-2,5-dimethyl-1-pyrrolidinyl]propyl}sulfonyl)-4-piperidinyl]-5-phenyl-1H-indole-7-carboxamide] | < 10 µM
CN1CCN(CCCS(=O)(=O)N2CCC(c3c[nH]c4c(C(N)=O)cc(-c5cccs5)cc34)CC2)CC1 [Example 70, 3-(1-{[3-(4-methyl-1-piperazinyl)propyl]sulfonyl}-4-piperidinyl)-5-(2-thienyl)-1H-indole-7-carboxamide] | < 10 µM
NC(=O)c1cc(-c2ccsc2)cc2c(C3CCN(S(=O)(=O)CCCN4CCC(O)CC4)CC3)c[nH]c12 [Example 71, 3-(1-{[3-(4-hydroxy-1-piperidinyl)propyl]sulfonyl}-4-piperidinyl)-5-(3-thienyl)-1H-indole-7-carboxamide] | < 10 µM
CN1CCN(CCCS(=O)(=O)N2CCC(c3c[nH]c4c(C(N)=O)cc(-c5ccsc5)cc34)CC2)CC1 [Example 72, 3-(1-{[3-(4-methyl-1-piperazinyl)propyl]sulfonyl}-4-piperidinyl)-5-(3-thienyl)-1H-indole-7-carboxamide] | < 10 µM
NC(=O)c1cc(-c2cccs2)cc2c(C3CCN(S(=O)(=O)CCCN4CCOCC4)CC3)c[nH]c12 [Example 73, 3-(1-{[3-(4-morpholinyl)propyl]sulfonyl}-4-piperidinyl)-5-(2-thienyl)-1H-indole-7-carboxamide] | < 10 µM
NC(=O)c1cc(-c2ccsc2)cc2c(C3CCN(S(=O)(=O)CCCN4CCOCC4)CC3)c[nH]c12 [Example 74, 3-(1-{[3-(4-morpholinyl)propyl]sulfonyl}-4-piperidinyl)-5-(3-thienyl)-1H-indole-7-carboxamide] | < 10 µM
NC(=O)c1cc(-c2ccc(F)cc2)cc2c(C3CCN(S(=O)(=O)CCCN4CCCC4)CC3)c[nH]c12 [Example 75, 5-(4-fluorophenyl)-3-(1-{[3-(1-pyrrolidinyl)propyl]sulfonyl}-4-piperidinyl)-1H-indole-7-carboxamide] | < 10 µM
CN(C)CCCS(=O)(=O)N1CCC(c2c[nH]c3c(C(N)=O)cc(-c4cccc(CO)c4)cc23)CC1 [Example 76, 3-(1-{[3-(dimethylamino)propyl]sulfonyl}-4-piperidinyl)-5-[3-(hydroxymethyl)phenyl]-1H-indole-7-carboxamide] | < 10 µM
NC(=O)c1cc(-c2cccc(CO)c2)cc2c(C3CCN(S(=O)(=O)CCCN4CCCC4)CC3)c[nH]c12 [Example 83, 5-[3-(hydroxymethyl)phenyl]-3-(1-{[3-(1-pyrrolidinyl)propyl]sulfonyl}-4-piperidinyl)-1H-indole-7-carboxamide] | < 10 µM
CCNCc1cccc(-c2cc(C(N)=O)c3[nH]cc(C4CCN(S(=O)(=O)CCCN(C)C)CC4)c3c2)c1 [Example 96, 3-(1-{[3-(dimethylamino)propyl]sulfonyl}-4-piperidinyl)-5-{3-[(ethylamino)methyl]phenyl}-1H-indole-7-carboxamide] | < 10 µM
CC(C)(C)OC(=O)N1CCC(NCCCS(=O)(=O)N2CCC(c3c[nH]c4c(C(N)=O)cc(-c5ccccc5)cc34)CC2)CC1 [Example 108, 1,1-dimethylethyl 4-{[3-({4-[7-(aminocarbonyl)-5-phenyl-1H-indol-3-yl]-1-piperidinyl}sulfonyl)propyl]amino}-1-piperidinecarboxylate] | < 10 µM
NC(=O)c1cc(-c2ccccc2)cc2c(C3CCN(S(=O)(=O)CCCNC4CCNCC4)CC3)c[nH]c12 [Example 109, 5-phenyl-3-(1-{[3-(4-piperidinylamino)propyl]sulfonyl}-4-piperidinyl)-11 indole-7-carboxamide] | < 10 µM
COCCCS(=O)(=O)N1CCC(c2c[nH]c3c(C(N)=O)cc(-c4ccccc4)cc23)CC1 [Example 160, 3-(1-{[3-(methyloxy)propyl]sulfonyl}-4-piperidinyl)-5-phenyl-1H-indole-7-carboxamide] | < 10 µM

SMILES | IC50
NC(=O)c1cc(-c2ccccc2)cc2c(C3CCN(S(=O)(=O)CCCOCC4CC4)CC3)c[nH]c12 [Example 164, 3-[1-({3-[(cyclopropylmethyl)oxy]propyl}sulfonyl)-4-piperidinyl]-5-phenyl-1H-indole-7-carboxamide] | < 10 µM
CC(O)C(C)OCCCS(=O)(=O)N1CCC(c2c[nH]c3c(C(N)=O)cc(-c4ccccc4)cc23)CC1 (centres unmarked) [Example 165, 3-[1-({3-[(2-hydroxy-1-methylpropyl)oxy]propyl}sulfonyl)-4-piperidinyl]-5-phenyl-1H-indole-7-carboxamide] | < 10 µM
NC(=O)c1cc(-c2ccccc2)cc2c(C3CCN(S(=O)(=O)CCCO)CC3)c[nH]c12 [Example 174, 3-{1-[(3-hydroxypropyl)sulfonyl]-4-piperidinyl}-5-phenyl-1H-indole-7-carboxamide] | < 10 µM
CCOCCS(=O)(=O)N1CCC(c2c[nH]c3c(C(N)=O)cc(-c4ccccc4)cc23)CC1 [Example 175, 3-(1-{[2-(ethyloxy)ethyl]sulfonyl}-4-piperidinyl)-5-phenyl-1H-indole-7-carboxamide] | < 10 µM
CCOCCCS(=O)(=O)N1CCC(c2c[nH]c3c(C(N)=O)cc(-c4ccccc4)cc23)CC1 [Example 176, 3-(1-{[3-(ethyloxy)propyl]sulfonyl}-4-piperidinyl)-5-phenyl-1H-indole-7-carboxamide] | < 10 µM
NC(=O)c1cc(-c2ccccc2)cc2c(C3CCN(S(=O)(=O)CCOCCN4CCCCC4)CC3)c[nH]c12 [Example 178, 5-phenyl-3-{1-[(2-{[2-(1-piperidinyl)ethyl]oxy}ethyl)sulfonyl]-4-piperidinyl}-1H-indole-7-carboxamide] | < 10 µM
CC(C)NCc1cccc(-c2cc(C(N)=O)c3[nH]cc(C4CCN(S(=O)(=O)CCCN(C)C)CC4)c3c2)c1 [Example 214, 3-(1-{[3-(dimethylamino)propyl]sulfonyl}-4-piperidinyl)-5-(3-{[(1-methylethyl)amino]methyl}phenyl)-1H-indole-7-carboxamide] | < 10 µM
CONCCS(=O)(=O)N1CCC(c2c[nH]c3c(C(N)=O)cc(-c4ccccc4)cc23)CC1 [Example 215, 3-[1-({2-[(methyloxy)amino]ethyl}sulfonyl)-4-piperidinyl]-5-phenyl-1H-indole-7-carboxamide] | < 10 µM
CONCCCS(=O)(=O)N1CCC(c2c[nH]c3c(C(N)=O)cc(-c4ccccc4)cc23)CC1 [Example 219, 3-[1-({3-[(methyloxy)amino]propyl}sulfonyl)-4-piperidinyl]-5-phenyl-1H-indole-7-carboxamide] | < 10 µM
CNCc1cccc(-c2cc(C(N)=O)c3[nH]cc(C4CCN(S(=O)(=O)CCCOC)CC4)c3c2)c1 [Example 223, 5-{3-[(methylamino)methyl]phenyl}-3-(1-{[3-(methyloxy)propyl]sulfonyl}-4-piperidinyl)-1H-indole-7-carboxamide] | < 10 µM
COCCCS(=O)(=O)N1CCC(c2c[nH]c3c(C(N)=O)cc(-c4cccs4)cc23)CC1 [Example 262, 3-(1-{[3-(methyloxy)propyl]sulfonyl}-4-piperidinyl)-5-(2-thienyl)-1H-indole-7-carboxamide] | < 10 µM
CCOCCCS(=O)(=O)N1CCC(c2c[nH]c3c(C(N)=O)cc(-c4ccsc4)cc23)CC1 [Example 263, 3-(1-{[3-(ethyloxy)propyl]sulfonyl}-4-piperidinyl)-5-(3-thienyl)-1H-indole-7-carboxamide] | < 10 µM
CCOCCCS(=O)(=O)N1CCC(c2c[nH]c3c(C(N)=O)cc(-c4cccs4)cc23)CC1 [Example 264, 3-(1-{[3-(ethyloxy)propyl]sulfonyl}-4-piperidinyl)-5-(2-thienyl)-1H-indole-7-carboxamide] | < 10 µM
NC(=O)c1cc(-c2cccs2)cc2c(C3CCN(S(=O)(=O)CCCO)CC3)c[nH]c12 [Example 265, 3-{1-[(3-hydroxypropyl)sulfonyl]-4-piperidinyl}-5-(2-thienyl)-1H-indole-7-carboxamide] | < 10 µM
Cn1cnc(S(=O)(=O)N2CCC(c3c[nH]c4c(C(N)=O)cc(-c5ccccc5)cc34)CC2)c1 [Example 267, 3-{1-[(1-methyl-1H-imidazol-4-yl)sulfonyl]-4-piperidinyl}-5-phenyl-1H-indole-7-carboxamide] | < 10 µM
NC(=O)c1cc(-c2ccccc2)cc2c(C3CCN(S(=O)(=O)c4cccs4)CC3)c[nH]c12 [Example 268, 5-phenyl-3-[1-(2-thienylsulfonyl)-4-piperidinyl]-1H-indole-7-carboxamide] | < 10 µM

— patent publication US7858796B2, “Chemical compounds” (Glaxo Group Limited, priority 2004, dated 2010)
